Reference: BindingDB's records for patent US10774051 (SHIONOGI & CO., LTD., 2020)

Biological target: T1, P2X purinoceptor 7 [Y155H,R270H] (Homo sapiens, UniProt Q99572, R270H/Y155H)
T1 construct: gene P2RX7
Test: Evaluation of a Human P2X7 Receptor Inhibitory Activity
Protocol: Stably expressing cell line (1321N1 cell transfected with the human P2X7 receptor gene (GenBank accession number NM_002562.5 including T606C and G952A SNP)) was used. The cells were seeded in a 384-well microtiter plate at a concentration of 8000 cells/well and cultured in the medium (10% fetal bovine serum, 25 mM HEPES, 1% penicillin and streptomycin in DMEM) for one day at 37° C. under 5% carbon dioxide atmosphere. After replacing with 20 μL of the HBSS buffer (20 mM HEPES, 55.6 mM D-glucose, 1×HBSS(−), pH7.4-7.5), 15 μL of 17.3 μM Yo-Pro solution in the HBSS buffer was added. The plate was placed in high-throughput cellular screening system FLIPR TETRA (Molecullar Devices, LLC.) and 15 μL of 130 μM BzATP solution in the HBSS buffer was added. Measurement of fluorescence intensity by FLIPR TETRA was started. After eight minutes, 15 μL of DMSO solutions containing different concentrations of the compound of the present invention as prepared by dilution with the HBSS buffer were dispensed to each well through the built-in automatic dispenser, and the measurement of fluorescence intensity was continued for 20 minutes. […] Changing values of fluorescence intensity by the compound of the present invention were calculated by difference between maximum and minimum fluorescence intensity for 20 minutes. IC50 was calculated using logistic approximation.

T1 sequence (Q99572 whole entry Y155H/R270H, looked up): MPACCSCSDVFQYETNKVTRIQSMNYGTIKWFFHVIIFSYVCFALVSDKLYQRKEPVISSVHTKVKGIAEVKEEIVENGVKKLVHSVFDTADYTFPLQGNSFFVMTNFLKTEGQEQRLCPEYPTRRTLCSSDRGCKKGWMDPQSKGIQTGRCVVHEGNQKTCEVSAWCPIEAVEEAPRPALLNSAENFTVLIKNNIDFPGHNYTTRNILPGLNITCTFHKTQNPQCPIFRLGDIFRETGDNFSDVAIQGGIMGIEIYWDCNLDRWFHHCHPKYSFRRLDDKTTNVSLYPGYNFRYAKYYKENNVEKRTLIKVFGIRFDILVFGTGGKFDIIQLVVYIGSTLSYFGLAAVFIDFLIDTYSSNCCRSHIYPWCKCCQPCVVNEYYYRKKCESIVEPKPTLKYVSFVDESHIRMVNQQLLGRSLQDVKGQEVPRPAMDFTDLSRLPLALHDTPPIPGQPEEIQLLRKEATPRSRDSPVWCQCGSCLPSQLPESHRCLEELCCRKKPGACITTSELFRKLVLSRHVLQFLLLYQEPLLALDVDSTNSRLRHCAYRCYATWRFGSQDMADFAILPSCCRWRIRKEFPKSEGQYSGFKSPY

Q: Which IC50 does the source give for `COc1cn(Cc2cc(F)c(F)c(F)c2)c(Nc2cccc(Cl)c2C)nc1=O` [US10774051, Compound I-0004] here?
A: < 0.01 µM
